In US9676859B2, “In vitro generation of dendritic cells by exposure to an anti-CSF1-R antibody” (TRANSGENE SA, priority 2012, dated 2017):

Tests used:
[1] = system: differentiating macrophages; test: Human macrophage differentiation assay: microscopical observation and cell counts of day-6 cultures (cytotoxicity); type: cell-based; details: for Microscopical observation of day-6 cultures (cytotoxicity), compared with untreated cells: all doses evaluated (mAbs 0.1, 1, 10 μg/ml, F(ab′)2 0.066, 0.66, 6.6 μg/ml), all donors
From the text: Cells were counted following a 6-day culture of monocyte, or precursors thereof, s with GM-CSF and CSF-1, in the presence or absence of anti-CD115 mAbs or F(ab′)2 or with GW2580. Controls included cultures treated with rituximab or rituximab F(ab′)2, or without any added compound.
Buffy coats were provided by the Etablissement Français du Sang (EFS, Strasbourg). Peripheral blood mononucleated cells (PBMC) were obtained by centrifugation on a ficoll gradient. Monocytes were purified by immunomagnetic cell sorting, using CD14-antibody-coated beads (Miltenyii). […] Monocytes were differentiated for 6 days in 48-well plates (3×10^5 cells/well) in RPMI-Glutamax™ medium supplemented with 10% heat inactivated fetal calf serum and 1% tri-antibiotic mixture (penicillin, streptomycin, neomycin). GM-CSF (10 ng/ml) was added in the cell culture medium from day 0 to day 3. H27K15, other antibodies or internal control GW2580 (LC Labs) were added at day 0. On day 3 post-isolation, monocytes were washed with PBS and further cultivated in medium supplemented with CSF-1 (10 ng/ml) and GM-CSF (2 ng/ml), in the presence or absence of antibodies or GW2580. On day 6, supernatants were collected and stored at −20° C. Cells were detached from the plastic and pools of triplicates were analyzed by IC/FC (immunocytochemistry/flow cytometry) for cell sizes and expression of FcγR and CD86. Cytokines and chemokines were quantified in the culture supernatants by multiplex (Bioplex, Bio-Rad) or by ELISA.
Three different doses of mab H27K15 or isotype control rituximab (0.1; 1 or 10 μg/ml) were added to the culture medium at the beginning of the culture and again 3 days later. F(ab′)2 generated from H27K15 or from rituximab were tested in parallel at equivalent molar concentrations.
Cell viability was analyzed at day 6 by counting 5 microscope fields in each well of the plate (one in the center of the well and four fields at mid-distance between the center and the side of the well).

IL-12p70 = IL-12p70 titration in day-6 macrophage culture supernatants; type: cell-based, human; details: day-6 supernatants, 3 blood donors, GW2580 1 μM; for IL-12p70 secretion: mAbs 1 μg/ml, detection limit 11 pg/ml
Experimental: (§1) IL-12p70 and IL-10 were titrated in the culture supernatants from day-6 macrophages differentiated in the presence of mAb H27K15 (1 μg/ml), GW2580 (1 μM) or their respective negative controls rituximab or no treatment. Left panel: IL-12p70 and IL-10 levels […] in macrophage cultures from 3 blood donors. Right: IL-12p70 […]/IL-10 […] ratios were calculated for each blood donor and each culture condition. In samples where IL-12p70 was undetectable (below the detection limit of 11 pg/m)l, its level was arbitrarily set at 1 pg/ml for the calculation of IL-12p70/IL-10 ratios.
(§2) Buffy coats were provided by the Etablissement Français du Sang (EFS, Strasbourg). Peripheral blood mononucleated cells (PBMC) were obtained by centrifugation on a ficoll gradient. Monocytes were purified by immunomagnetic cell sorting, using CD14-antibody-coated beads (Miltenyii). Enriched monocyte suspensions were more than 95% pure. Monocytes were differentiated for 6 days in 48-well plates (3×10^5 cells/well) in RPMI-Glutamax™ medium supplemented with 10% heat inactivated fetal calf serum and 1% tri-antibiotic mixture (penicillin, streptomycin, neomycin). GM-CSF (10 ng/ml) was added in the cell culture medium from day 0 to day 3. H27K15, other antibodies or internal control GW2580 (LC Labs) were added at day 0. On day 3 post-isolation, monocytes were washed with PBS and further cultivated in medium supplemented with CSF-1 (10 ng/ml) and GM-CSF (2 ng/ml), in the presence or absence of antibodies or GW2580. On day 6, supernatants were collected and stored at −20° C. Cells were detached from the plastic and pools of triplicates were analyzed by IC/FC (immunocytochemistry/flow cytometry) for cell sizes and expression of FcγR and CD86. Cytokines and chemokines were quantified in the culture supernatants by multiplex (Bioplex, Bio-Rad) or by ELISA.
IL-12p70 and IL-10 were titrated in day-6 culture supernatants.

CD64 (FcγRI) = test: Surface expression of CD64 on day-6 macrophages by IC/FC; type: cell-based, human; details: GW2580 1 μM vs no treatment
Experimental: Macrophages obtained following a 6-day culture of monocyte, or precursors thereof from 3 different blood donors with GM-CSF and CSF-1 were analyzed by IC/FC for surface expression of CD64. Upper panels: CD64 staining in cultures from donor 1 treated with monoclonal antibody H27K15 (left, bold line) or with GW2580 (right, bold line) or their respective negative controls rituximab (left, thin line) or no treatment (right, thin line). Lower panel: Medians of fluorescence intensities in macrophage cultures treated with test compounds at 10, 1 or 0.1 μg/ml* were compared with those in the corresponding negative controls: H27K15 vs rituximab, H27K15-derived F(ab′)2 vs rituximab-derived F(ab′)2, mAbs 2-4A5 or 9-4D2 vs rat IgG1, GW2580 vs no treatment. Percentages of reduction in CD64 expression were calculated as: 100−[100×Median fluorescence intensity with test compound/Median fluorescence intensity with control]. […]
(§3) Buffy coats were provided by the Etablissement Français du Sang (EFS, Strasbourg). […] Cells were detached from the plastic and pools of triplicates were analyzed by IC/FC (immunocytochemistry/flow cytometry) for cell sizes and expression of FcγR and CD86. Cytokines and chemokines were quantified in the culture supernatants by multiplex (Bioplex, Bio-Rad) or by ELISA. […]

CD86 = test: Induction of CD86bright SSClow macrophage population by IC/FC; type: cell-based, human; details: day-6 macrophages; mAb 10, 1, 0.1 μg/ml, F(ab′)2 equimolar, GW2580 1 μM
Experimental: Upper panels: Dot plots showing CD86 staining (x-axis) and side scatter (SSC, y-axis) of macrophages from donor 3 differentiated for 6 days in the presence of H27K15 (left) or negative control rituximab (right). A gate was set on the CD86^bright SSC^low cell population induced by H27K15. Lower panel: Percentages of CD86^bright SSC^low cells with the test compounds at 10, 1 or 0.1 μg/ml* were compared with those in the corresponding negative controls: H27K15 vs rituximab, H27K15-derived F(ab′)2 vs rituximab-derived F(ab′)2, GW2580 vs no treatment. Percentages of increase in the CD86^bright SSC^low cell population were calculated as: 100×percentage of CD86^bright SSC^low cells with test compound/percentage of CD86^bright SSC^low cells with control. Shown are the mean percentages of increase in the CD86^bright SSC^low cell population from the 3 blood donors. *except for F(ab′)2: 6.6; 0.6; and 0.06 μg/ml.
as §3, with “Strasbourg). Peripheral blood mononucleated cells (PBMC) were obtained by centrifugation on a ficoll gradient.” for “Strasbourg).”

IL-10 = IL-10 titration in day-6 macrophage culture supernatants; type: cell-based, human; details: day-6 supernatants; GW2580 1 μM
Experimental: as §1
as §3, with “Strasbourg). Peripheral blood mononucleated cells (PBMC) were obtained by centrifugation on a ficoll gradient. Monocytes were purified by immunomagnetic cell sorting, using CD14-antibody-coated beads (Miltenyii). Enriched monocyte suspensions were more than 95% pure.” for “Strasbourg).”

MCP-1/CCL2 = MCP-1/CCL2 titration in day-6 macrophage culture supernatants; type: cell-based, human; details: day-6 supernatants; H27K15 1 μg/ml, GW2580 1 μM
Experimental: MCP-1 and IL-6 were titrated in the culture supernatants from day-6 macrophages differentiated in the presence of mAb H27K15 (1 μg/ml), GW2580 (1 μM) or their respective negative controls rituximab or no treatment. Percentages of reduction in MCP-1 (upper panel) or in IL-6 production (lower panel) were calculated for the 3 blood donors as: 100−[100×cytokine concentration with test compound (pg/ml)/cytokine concentration with control (pg/ml)].
as §2, with “H27K15, other antibodies or internal control GW2580 (LC Labs) were added at day 0. On day 3 post-isolation, monocytes were washed with PBS and further cultivated in medium supplemented with CSF-1 (10 ng/ml) and GM-CSF (2 ng/ml), in the presence or absence of antibodies or GW2580. On day 6, supernatants were collected and stored at −20° C.” left out, “ELISA. […]” for “ELISA.”

MMP-9 = MMP-9 ELISA in day-6 supernatants of monocytes cultured with GM-CSF and CSF-1; type: cell-based, human; details: mAb 0.1, 1, 10 μg/ml, F(ab)′2 equimolar, effect in 2 out of 3 donors
Experimental: Monocytes isolated from 3 different blood donors were differentiated for 6 days in the presence of GM-CSF and CSF-1, with or without mAb H27K15, Rituximab or GW2580. MAb H27K15 or Rituximab (0.1, 1 or 10 μg/ml) or equimolar concentrations of F(ab)′2 derived from both mAbs were added to the cultures. MMP-9 was titrated by ELISA (R&D Systems) in day-6 culture supernatants.
CD14^+ monocytes from 3 different donors were allowed to differentiate in the presence of both GM-CSF and CSF-1, known to induce macrophage differentiation towards respectively the M1- and M2-types. MAb H27K15 or Rituximab (used as a negative control) were added to the cultures at 0.1, 1 or 10 μg/ml. Equimolar concentrations of F(ab)′2 derived from both mAbs were assayed in parallel. The tyrosine kinase inhibitor GW2580, previously shown to inhibit the CSF-1-dependent proliferation of human monocytes and the differentiation of murine macrophages in vitro was tested in the same assay. After 6 days of culture, MMP-9 concentrations were measured in the supernatants by ELISA (FIG. 6). […] Thus, mAb H27K15 is capable of decreasing MMP-9 secretion by differentiating M2 macrophages.

[2] = system: CD163+ M2-type macrophages; test: Flow cytometry of CD163-positive M2-type macrophages in day-6 cultures; type: cell-based, human; details: day-6 cultures with GM-CSF and CSF-1; 3 donors
Experimental: Cells obtained after 6-day culture with GM-CSF and CSF-1 were harvested and incubated for 20 min at 4° C. with PBS containing human IgG Fc fragments to saturate Fc receptors. Fluorochrome-conjugated mAbs (anti-CD14-PerCP-Cy5.5, anti-CD163-PE, anti-CD206-APC, anti-CD1a-FITC, BD Biosciences) were then incubated with each sample for 20 min at 4° C. FCM analysis was performed using a FACS LSR-II (BD biosciences) with the DIVA software. Data from 3 different blood donors are presented.
The surface expression of CD163 was analyzed by flow cytometry in day-6 macrophages derived from human monocytes cultured with GM-CSF and CSF-1. […] Culture with mAb H27K15 inhibited the differentiation of the CD163^+ macrophage population in all 3 donors tested. In the presence of 1 μg/ml H27K15, percentages of CD163-positive cells decreased from 2.5 to 4 folds compared with control cultures treated with rituximab.

Rituximab F(ab′)2: F(ab′)2 produced by pepsine digestion of rituximab, negative control
Microscopical observation of day-6 cultures (cytotoxicity), compared with untreated cells [1]: no obvious differences

Rituximab: human IgG1 isotype / negative control, obtained from Roche
Microscopical observation of day-6 cultures (cytotoxicity), compared with untreated cells [1]: no obvious differences | IL-12p70 secretion (IL-12p70): did not produce any detectable IL-12p70

COc1ccc(COc2ccc(Cc3cnc(N)nc3N)cc2OC)cc1 [GW2580, reference compound]
macrophage number remained at day 6 compared with untreated cultures ([1]; 1 μM): approximately 70% | Microscopical observation of day-6 cultures (cytotoxicity) ([1]; 1 μM, all blood donors): relative cytotoxicity | surface expression of CD64 (CD64 (FcγRI)): drastically reduced | Induction of CD86bright SSClow cell sub-population (CD86): had appeared | IL-12p70/IL-10 ratios (IL-12p70; H27K15 1 μg/ml, vs rituximab or no treatment): increased | IL-12p70 secretion (IL-12p70): not detectable | IL-10 production (IL-10): inhibition | production of the chemokine MCP-1/CCL2 (MCP-1/CCL2): almost totally suppressed | MMP-9 production (MMP-9): dose-dependent decrease | differentiation of the CD163+ macrophage population [2]: same effect in only 2/3 donors
